Values quoted from earlier work in patent US20080153788A1, “NOVEL COMPOSITION TO INCREASE MUSCLE STRENGTH” (ORAL DELIVERY TECHNOLOGIES, priority 2006, published 2008).

Assays:
[1] = humans; prior-art description
[2] = for injection

Row | SMILES | period over which concentration declines after the peak [1] | time to concentration peak after administration [1] | solubility in oily media [2]
1 | C[C@]12CC[C@H]3[C@@H](CCC4=CC(O)CC[C@@]43C)[C@@H]1CC[C@@H]2O (stereo partly drawn) [4-androstene-3,17β-diol] | 3 to 4 h | ≤ 90 min | 
2 | CCCCCCCCCCC(=O)O[C@H]1CC[C@H]2[C@H]3[C@H](CC[C@]12C)[C@H]1CCC(=O)C=C1C[C@H]3C [MENT undecanoate, (7α,17β)-7-methyl-17-[(1-α-oundecyl)oxy]estr-4en-3one] |  |  | good solubility
